Measurements published in patent publication EP2487171A1, “Dihydrobenzopyran, thiochroman, tetrahydroquinoleine and tetrahydronaphthalene derivatives and their use in anti-cancer therapy” (Université de Liège, priority 2011, dated 2012).

How the values were obtained:
[1] = test system: human U373 glioma cell line; test: Quantitative videomicroscopy (computer-assisted phase-contrast microscopy); type: cell-based; conditions: U373 cells treated at the IC50 concentration from MTT, filmed for 72h; cytostatic versus cytotoxic effects
Text: In addition, the inventors could establish that the compounds of the invention act through a non-apoptosis-related mechanism thanks to a unique experimental approach used by the inventors, i.e. computer-assisted phase-contrast microscopy (quantitative videomicroscopy), making them good candidates as anti-cancer drugs for treating apoptosis-resistant tumor or cancer cells and for overcoming problems linked to the known anti-cancer drugs.
As the MTT test is based on the mitochondria functions, we also investigated the effects of the compounds according to the invention on cell proliferation, migration and morphology by means of a cellular imaging approach (Debeir et al., Cytometry 60:29-40, 2004; Debeir et al., IEEE Trans Med Imaging 24:697-711, 2005) in the human U373 glioma cell line, which is apoptosis-resistant but autophagy-sensitive (Lefranc F et al., Neurosurgery 2008).
Cellular imaging relied on the use of computer-assisted phase-contrast microscopy making possible to film the behaviour of living cells in culture dishes for several days.
Cells were seeded in a 25-cm^2 flask at a low density, treated or not with the compounds of the invention (at their IC50 concentration determined previously by MTT tests) and filmed thereafter for a period of 72h. The experiment was conducted in triplicate.
The behaviour of the cells, in terms of morphology, growth and death were thus investigated. The effect on the overall growth was measured by counting the number of cells on the first (0h) and the last image (72h) of each film. The global growth ratio (GGR) was then deduced by dividing the number of cells on the last image by the number of cells on the first image. The ratio GGRtreated cells / GGRcontrol cells, was further calculated thereby obtaining a value that describes the effect of compounds of the present invention on the overall cell growth.
The methodology is fully described and validated in Debeir et al., 2008, Exp Cell Res 314:2985-2998 and Mathieu et al., 2009, J Cell Mol Med, Feb 20, 2009.
Thanks to the quantitative videomicroscopy (QVM) approach, we classified the compounds into 4 distinctive classes on the basis of their cytostatic versus cytotoxic effects (Table 3). • Class I: actually cytostatic for 3 days (< 10 % of cell death at the 3rd day) • Class II: cytostatic but becomes cytotoxic with < 10% cell death on the 2nd day and > 20% of cell death on the 3rd day • Class III: cytostatic but rapidly becomes cytotoxic with < 10% cell death on the 1st day, > 20% of cell death on the 2nd day and > 50% of cell death on the 3rd day • Class IV: cytotoxic (> 50% of cell death on the first day)
In Fig. 1a, compounds of example 14 (5 µM), example 19 (20 µM) and example 23 (5 µM) belong to QVM Class I because they display cytostatic effects on human U373 GBM cells during the whole duration of the experiment. Cytostatic effects mean that < 10 % of cell death was recorded at the end of the experiment, i.e. at the end of the 3rd day. QVM analyses enable the global growth ratio (GGR) to be calculated in each experiment. The GGR index is obtained by dividing the number of cells in the last image by the number of cells in the first image of the experiment, knowing that 1080 images are taken during the 72 h-period of observation. The ratio GGR^treated cells / GGR^control cells was further calculated thereby obtaining a value that describes the effect of compounds on the overall cell growth. Thus, a GGR index of 0.2 means that they remain only 20% of treated cells compare to the control cells at the end of the experiment.

[2] = test system: Hs683; test: MTT colorimetric assay, overall cell growth; type: cell-based; conditions: Homo sapiens, Hs 683; Hs683 cells, 72 hours of incubation; read-out: IC50 (µM) In Vitro Growth Inhibitory Concentrations (MTT Colorimetric Assay) Hs683
Description: (§1) The compounds and particularly dihydrobenzopyran, thiochroman, tetrahydroquinoleine and tetrahydronaphthalene derivatives of the invention were evaluated for their anti-proliferative effect (by means of the colorimetric MTT assay), in the following human glioblastoma cell-lines U373, T98G and Hs683 and in the mouse glioma cell line GL261. Normal brain cells (primocultures from newborn mice) were also used in order to determine the bioselectivity (B^N/C) of the compounds of interest, i.e. the ratio between the concentrations that inhibits 50% of the growth of brain cancer (C) cells (glioma cells) and the concentration that inhibits 50% of the growth of normal (N) brain cells (primocultures of astrocytes). The ideal situation to be reached is a bioselectivity of B^N/C > 10.
(§2) MTT tests were performed in order to rapidly, i.e. within 5 days, measure the effect of compounds of this invention on the overall cell growth. The test measured the number of metabolically active living cells that were able to transform the yellow product 3-(4,5-dimethylthiazol-2-yl)-2,5-diphenyl tetrazolium bromide (herein referred as MTT) into the blue product formazan dye by mitochondrial reduction. The amount of formazan obtained at the end of the experiment, measured by means of a spectrophotometer, is directly proportional to the number of living cells. Optical density determination thus enabled a quantitative measurement of the effect of the investigated compounds as compared to the control condition (untreated cells) and/or to other reference compounds.
(§3) Three human cancer cell lines were used in the following MTT tests.
(§4) To perform the assay, cells were allowed to grow in 96-well micro-wells with a flat bottom with an amount of 100 µl of cell suspension per well with 1,000 to 8,000 cells/well depending on the cell type used. Each cell line was seeded in its appropriate culture medium.
(§5) The detailed experimental procedure was the following: after a 24-hour period of incubation at 37°C, the culture medium was replaced by 100 µl of fresh medium in which the tested compound was previously dissolved, at the following molar concentrations: 10^-8 M, 5.10^-8 M, 10^-7 M, 5.10^-7 M, 10^-6 M, 5.10^-6 M, 10^-5 M, 5.10^-5 M and 10^-4 M. Each experiment was performed in sextuplicate (6 times).
(§6) After 72 hours of incubation at 37°C with (experimental conditions) or without (control condition) the compound to be tested, the medium was replaced by 100 µl MTT dissolved in RPMI (1640 without phenol red) at a concentration of 0.5 mg/ml. The micro-wells were subsequently incubated during 3 hours and a half at 37°C and centrifuged at 1300 rpm during 10 minutes. MTT was removed and formazan crystals formed were dissolved in 100 µl DMSO. The micro-wells were shaken for 5 minutes and read on a spectrophotometer at wavelengths of 570 nm (maximal formazan absorbance).
(§7) For each experimental condition, the mean optical density was calculated, allowing the determination of the percentage of remaining living cells in comparison to the control.

[3] = test system: T98G; test: MTT colorimetric assay, overall cell growth; conditions: Homo sapiens, 72 h, read-out: IC50 (µM) In Vitro Growth Inhibitory Concentrations (MTT Colorimetric Assay) T98G;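 also: growth inhibition of the human glioblastoma line measured by MTT reduction to formazan, optical density read on a spectrophotometer at 570 nm, untreated cells as control, nine concentrations from 10 nM to 100 µM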
Description: The compounds and particularly dihydrobenzopyran, thiochroman, tetrahydroquinoleine and tetrahydronaphthalene derivatives of the invention were evaluated for their anti-proliferative effect (by means of the colorimetric MTT assay), in the following human glioblastoma cell-lines U373, T98G and Hs683 and in the mouse glioma cell line GL261. Normal brain cells (primocultures from newborn mice) were also used in order to determine the bioselectivity (B^N/C) of the compounds of interest, i.e. the ratio between the concentrations that inhibits 50% of the growth of brain cancer (C) cells (glioma cells) and the concentration that inhibits 50% of the growth of normal (N) brain cells (primocultures of astrocytes).
as §2, §3, §4, §5
The micro-wells were subsequently incubated during 3 hours and a half at 37°C and centrifuged at 1300 rpm during 10 minutes. MTT was removed and formazan crystals formed were dissolved in 100 µl DMSO. The micro-wells were shaken for 5 minutes and read on a spectrophotometer at wavelengths of 570 nm (maximal formazan absorbance).
as §7

[4] = test system: U373; test: MTT colorimetric assay, overall cell growth; type: cell-based; conditions: Homo sapiens, U373 MG; U373 cells, 72 hours of incubation; read-out: IC50 (µM) In Vitro Growth Inhibitory Concentrations (MTT Colorimetric Assay) U373
Description: as §1, §2, §3, §4, §5, §6, §7

SMILES | QVM Class [1] | IC50 [2] | IC50 [3] | IC50 [4]
CC(C)(C)OC(=O)Nc1ccc2c(c1)C(NC(=O)Nc1ccc(F)cc1)CC(C)(C)O2 (racemic) [Example 18, R/S-N-4-fluorophenyl-N'-(6-tert-butoxycarbonylamino-3,4-dihydro-2,2-dimethyl-2H-1-benzopyran-4-yl)urea] | I (Class I: actually cytostatic for 3 days (< 10 % of cell death at the 3rd day)) | 35 µM | 33 µM | 30 µM
CC(C)(C)OC(=O)Nc1ccc2c(c1)C(NC(=O)Nc1ccc(Cl)cc1)CCO2 (racemic) [Example 3, R/S-N-4-chlorophenyl-N'-(6-tert-butoxycarbonylamino-3,4-dihydro-2H-1-benzopyran-4-yl)urea] |  | > 100 µM | > 100 µM | 11 µM
CC(C)(C)OC(=O)Nc1ccc2c(c1)C(NC(=O)Nc1ccc(Cl)cc1C(F)(F)F)CC(C)(C)O2 (racemic) [Example 37, R/S-N-4-chloro-2-trifluoromethylphenyl-N'-(6-tert-butoxycarbonylamino-3,4-dihydro-2,2-dimethyl-2H-1-benzopyran-4-yl)urea] | II (Class II: cytostatic but becomes cytotoxic with < 10% cell death on the 2nd day and > 20% of cell death on the 3rd day) | 30 µM | 38 µM | 34 µM
CC(C)(C)OC(=O)Nc1ccc2c(c1)C(NC(=O)Nc1ccccc1Cl)CCO2 (racemic) [Example 1, R/S-N-2-chlorophenyl-N'-(6-tert-butoxycarbonylamino-3,4-dihydro-2H-1-benzopyran-4-yl)urea] |  | 23 µM | 24 µM | 26 µM
CC(C)(C)OC(=O)Nc1ccc2c(c1)C(NC(=O)Nc1cccc(Br)c1)CC(C)(C)O2 (racemic) [Example 20, R/S-N-3-bromophenyl-N'-(6-tert-butoxycarbonylamino-3,4-dihydro-2,2-dimethyl-2H-1-benzopyran-4-yl)urea] | III (Class III: cytostatic but rapidly becomes cytotoxic with < 10% cell death on the 1st day, > 20% of cell death on the 2nd day and > 50% of cell death on the 3rd day) | 18 µM | 26 µM | 22 µM
CC(C)(C)OC(=O)Nc1ccc2c(c1)C(NC(=O)Nc1cccc(C#N)c1)CCO2 (racemic) [Example 5, R/S-N-3-cyanophenyl-N'-(6-tert-butoxycarbonylamino-3,4-dihydro-2H-1-benzopyran-4-yl)urea] |  | 25 µM | 38 µM | 29 µM
CC(C)(C)OC(=O)Nc1ccc2c(c1)C(NC(=O)Nc1ccc([N+](=O)[O-])cc1)CC(C)(C)O2 (racemic) [Example 22, R/S-N-4-nitrophenyl-N'-(6-tert-butoxycarbonylamino-3,4-dihydro-2,2-dimethyl-2H-1-benzopyran-4-yl)urea] | IV (Class IV: cytotoxic (> 50% of cell death on the first day)) | 20 µM | 26 µM | 24 µM
CC(C)(C)OC(=O)Nc1ccc2c(c1)C(NC(=O)Nc1cc(C(F)(F)F)ccc1Cl)CC(C)(C)O2 (racemic) [Example 31, R/S-N-2-chloro-5-trifluoromethylphenyl-N'-(6-tert-butoxycarbonylamino-3,4-dihydro-2,2-dimethyl-2H-1-benzopyran-4-yl)urea] | II (Class II: cytostatic but becomes cytotoxic with < 10% cell death on the 2nd day and > 20% of cell death on the 3rd day) | 12 µM | 38 µM | 15 µM
CC(C)(C)OC(=O)Nc1ccc2c(c1)C(NC(=O)Nc1ccccc1C#N)CC(C)(C)O2 (racemic) [Example 36, R/S-N-2-cyanophenyl-N'-(6-tert-butoxycarbonylamino-3,4-dihydro-2,2-dimethyl-2H-1-benzopyran-4-yl)urea] | I (Class I: actually cytostatic for 3 days (< 10 % of cell death at the 3rd day)) | 54 µM | 67 µM | 45 µM
CC(C)(C)OC(=O)Nc1ccc2c(c1)C(NC(=O)Nc1cccc(Cl)c1)CCO2 (racemic) [Example 2, R/S-N-3-chlorophenyl-N'-(6-tert-butoxycarbonylamino-3,4-dihydro-2H-1-benzopyran-4-yl)urea] |  | 28 µM | 29 µM | 19 µM
CC(C)(C)OC(=O)Nc1ccc2c(c1)C(NC(=O)Nc1ccccc1Cl)CC(C)(C)O2 (racemic) [Example 35, R/S-N-2-chlorophenyl-N'-(6-tert-butoxycarbonylamino-3,4-dihydro-2,2-dimethyl-2H-1-benzopyran-4-yl)urea] |  | 34 µM | 100 µM | 59 µM
CC(C)(C)OC(=O)Nc1ccc2c(c1)C(NC(=O)Nc1ccccc1C#N)CCO2 (racemic) [Example 4, R/S-N-2-cyanophenyl-N'-(6-tert-butoxycarbonylamino-3,4-dihydro-2H-1-benzopyran-4-yl)urea] |  | 44 µM | 65 µM | 53 µM
CC(C)(C)OC(=O)Nc1ccc2c(c1)C(NC(=O)Nc1ccc(Cl)c(C(F)(F)F)c1)CC(C)(C)O2 (racemic) [Example 33, R/S-N-4-chloro-3-trifluoromethylphenyl-N'-(6-tert-butoxycarbonylamino-3,4-dihydro-2,2-dimethyl-2H-1-benzopyran-4-yl)urea] | III (Class III: cytostatic but rapidly becomes cytotoxic with < 10% cell death on the 1st day, > 20% of cell death on the 2nd day and > 50% of cell death on the 3rd day) | 22 µM | 23 µM | 21 µM
CC(C)(C)OC(=O)Nc1ccc2c(c1)C(NC(=O)Nc1c(Cl)cccc1C(F)(F)F)CC(C)(C)O2 (racemic) [Example 32, R/S-N-2-chloro-6-trifluoromethylphenyl-N'-(6-tert-butoxycarbonylamino-3,4-dihydro-2,2-dimethyl-2H-1-benzopyran-4-yl)urea] | III (Class III: cytostatic but rapidly becomes cytotoxic with < 10% cell death on the 1st day, > 20% of cell death on the 2nd day and > 50% of cell death on the 3rd day) | 66 µM | 60 µM | 60 µM
CC(C)(C)OC(=O)Nc1ccc2c(c1)C(NC(=O)Nc1ccc(C#N)cc1)CCO2 (racemic) [Example 6, R/S-N-4-cyanophenyl-N'-(6-tert-butoxycarbonylamino-3,4-dihydro-2H-1-benzopyran-4-yl)urea] |  | 30 µM | 39 µM | 42 µM
CC(C)(C)OC(=O)Nc1ccc2c(c1)C(NC(=O)Nc1cccc(F)c1)CC(C)(C)O2 (racemic) [Example 19, R/S-N-3-fluorophenyl-N'-(6-tert-butoxycarbonylamino-3,4-dihydro-2,2-dimethyl-2H-1-benzopyran-4-yl)urea] | I (Class I: actually cytostatic for 3 days (< 10 % of cell death at the 3rd day)) | 19 µM | 26 µM | 20 µM
CC(C)(C)OC(=O)Nc1ccc2c(c1)C(NC(=O)Nc1ccc(Cl)cc1)CC(C)(C)O2 (racemic) [Example 17, R/S-N-4-chlorophenyl-N'-(6-tert-butoxycarbonylamino-3,4-dihydro-2,2-dimethyl-2H-1-benzopyran-4-yl)urea] | III (Class III: cytostatic but rapidly becomes cytotoxic with < 10% cell death on the 1st day, > 20% of cell death on the 2nd day and > 50% of cell death on the 3rd day) | 26 µM | 26 µM | 22 µM
